Reference: PubChem BioAssay (NCI)
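Grown in 96-well plates, cells were treated for 48 hours with each compound at five concentrations. Insufficient inhibition: endpoint recorded as highest concentration tested. GI50: concentration for 50% inhibition of growth. TGI marks complete inhibition of growth.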

Experiments:
Test in all cases: NCI-60 cell line screen, 48 h
EKVX NSCLC = test system: EKVX NSCLC
CAKI-1 renal = test system: CAKI-1 renal
OVCAR-8 ovarian = test system: OVCAR-8 ovarian
HOP-62 NSCLC = test system: HOP-62 NSCLC
HCT-15 colon = test system: HCT-15 colon
M14 melanoma = test system: M14 melanoma
OVCAR-3 ovarian = test system: OVCAR-3 ovarian
SF-268 CNS = test system: SF-268 CNS
U251 CNS = test system: U251 CNS
TK-10 renal = test system: TK-10 renal

SMILES	TGI (EKVX NSCLC)	TGI (CAKI-1 renal)	TGI (OVCAR-8 ovarian)	TGI (HOP-62 NSCLC)	TGI (HCT-15 colon)	TGI (M14 melanoma)	TGI (OVCAR-3 ovarian)	TGI (SF-268 CNS)	TGI (U251 CNS)	TGI (TK-10 renal)	GI50 (EKVX NSCLC)	GI50 (CAKI-1 renal)	GI50 (OVCAR-8 ovarian)	GI50 (HOP-62 NSCLC)	GI50 (TK-10 renal)	GI50 (HCT-15 colon)	GI50 (M14 melanoma)	GI50 (SF-268 CNS)	GI50 (U251 CNS)
COc1ccc(/C=N/n2c(Cc3ccccc3)n[nH]c2=O)cc1	> 100 µM	> 100 µM	> 100 µM	> 100 µM	> 100 µM	> 100 µM	> 100 µM	> 100 µM	> 100 µM	–	–	–	–	–	–	–	–	–	–
Clc1cccc2[nH]ncc12	95.4 µM	> 100 µM	> 100 µM	> 100 µM	> 100 µM	–	> 100 µM	–	> 100 µM	> 100 µM	–	–	–	–	–	–	–	–	–
CC(C)CCCC(C)[C@H]1CCC2[C@@H]3CCC4Cc5nc6c(nc5C[C@]4(C)C3CC[C@@]21C)CC1CC[C@@H]2C(CC[C@@]3(C)C2CC[C@@H]3O)[C@@]1(C)C6 (stereo partly drawn)	> 100 µM	–	> 100 µM	> 100 µM	> 100 µM	> 100 µM	> 100 µM	> 100 µM	> 100 µM	> 100 µM	–	–	–	–	–	–	–	–	–
O=C1c2ccccc2-n2c1nc1ccc(Cl)cc1c2=O	> 100 µM	> 100 µM	> 100 µM	> 100 µM	> 100 µM	> 100 µM	> 100 µM	–	> 100 µM	> 100 µM	–	–	–	–	–	–	–	–	–
CCN1C(=O)N2C(OC)c3ccccc3C(Br)C2(OC)C1=O (stereo not drawn)	–	> 100 µM	> 100 µM	> 100 µM	> 100 µM	> 100 µM	> 100 µM	–	> 100 µM	> 100 µM	–	–	–	–	–	–	–	–	–
CCCCOc1ccc(S(=O)(=O)/N=C(\N)Nc2ccc(Cl)cc2)cc1	23.2 µM	–	29.9 µM	44.2 µM	27.6 µM	38 µM	31.8 µM	29.3 µM	28 µM	28.1 µM	–	–	–	–	–	–	–	–	–
CCN(CC)C(=S)SSCCO	39.7 µM	27.5 µM	38.7 µM	> 100 µM	38.4 µM	27.5 µM	–	37.1 µM	37.5 µM	40.8 µM	20.1 µM	13.6 µM	19.3 µM	> 100 µM	24 µM	17.9 µM	14.2 µM	19 µM	16.7 µM
Nc1ncnc2c1ncn2CCOC(c1ccccc1)P(=O)(O)O (stereo not drawn)	> 100 µM	> 100 µM	> 100 µM	–	> 100 µM	–	> 100 µM	> 100 µM	> 100 µM	> 100 µM	–	–	–	–	–	–	–	–	–
